Assay results published in US20250268902A1, “THERAPEUTIC METHODS” (CeleCor Therapeutics, Inc., priority 2021, published 2025).
Where two headings read alike, the source gives them in different places.

What was measured:
[1] = test system: agglutination of fibrinogen-coated beads by activated platelets; assay: VerifyNow ADP+PGE1, iso-TRAP and base channel assays; type: cell-based
Procedure: VerifyNow (VN) assays (Instrumentation Laboratories, Bedford, MA) are whole-blood, cartridge-based, and automated, and produce results within 15 minutes of blood draw. They are based on the agglutination of fibrinogen-coated beads by platelets activated by different agonists. Commercially available VN assays are designed to study the antiplatelet effects of aspirin (VN Aspirin cartridge; arachidonic acid activator) or P2Y12 antagonists (VN PRUTest cartridge and VN P2Y12 cartridge; ADP+PGE1 activator/inhibitor combination). The modified thrombin receptor activating peptide (iso-TRAP) is included in a separate reaction chamber (in addition to the ADP+PGE1 reaction chamber) in both the PRUTest and P2Y12 cartridges, and the P2Y12 cartridges further include a ‘BASE channel’ reaction chamber in which a PAR-1 activating peptide (iso-TRAP) at higher concentrations is combined with a PAR-4 activating peptide (PAR-4 AP) to achieve potent activation that can overcome the effects of P2Y12 antagonists.
VerifyNow ADP+PGE1, iso-TRAP, and base channel assays may be used to report Compound (1)-mediated inhibition in near real-time. VN assays can be used to help deconvolute antiplatelet effects of αIIbβ3 antagonists versus P2Y12 antagonists. […] The BASE channel assay was used to monitor the pharmacodynamic effects of Compound (1) independent of any P2Y12 inhibitors.

[2] = test system: platelets in whole blood (VN isoTRAP and ADP+PGE1 channels); assay: In vitro VerifyNow IIb/IIIa and PRU cartridges in whole blood from healthy volunteers; type: cell-based, human; conditions: 30-900 nM, 10 minutes at room temperature
Procedure: Whole blood anticoagulated with either sodium citrate (0.32%) or PPACK ([…]) from healthy volunteers who were either taking or not taking daily aspirin was treated in vitro with Compound (I) (RUC-4) to achieve final whole blood concentrations between 30 and 900 nM. Blood was incubated for 10 minutes at room temperature and then tested with either the IIb/IIIa or PRU cartridge.

platelet aggregation = assay: Light transmission aggregometry (LTA) with activators ADP, iso-TRAP, arachidonic acid; type: cell-based
Excerpt: Light transmission aggregometry (LTA) is considered the gold standard assay to assess the potency of antiplatelet agents, such as Compound (I), because of its association with clinical outcomes.

[3] = test system: platelet aggregation to adenosine diphosphate (ADP; 20 μM); assay: Inhibition of platelet aggregation (IPA) to ADP (20 μM) after SC injection in healthy volunteers and stable CAD patients on aspirin; type: in vivo, human; conditions: for mean±SD IPA / IPA: 15 minutes after injection; for IPA: stable CAD patients on aspirin
Procedure: Sequentially, healthy volunteers (HV) and then patients with stable coronary disease (CAD) receiving aspirin received escalating doses of RUC-4 or placebo in a sentinel dose, randomized, blinded fashion. Inhibition of platelet aggregation (IPA) to adenosine diphosphate (ADP; 20 μM), RUC-4 blood levels, laboratory evaluations, and clinical assessments were made through 24 hours and at 7 days. Doses were increased until a dose that produced ≥80% IPA within 15 minutes, with return toward baseline within 4 hours was achieved. VerifyNow (VN) was also measured in a subset of patients with stable CAD.

[4] = test system: PAR1/PAR4-induced platelet aggregation (BASE Channel); assay: VerifyNow P2Y12 assay BASE channel platelet inhibition in STEMI patients (CEL-02 trial); type: in vivo, human; conditions: for inhibition at 0.075 mg/kg / inhibition at 0.09 mg/kg / inhibition at 0.11 mg/kg: Homo sapiens, Platelet; for inhibition at 0.075 mg/kg: 0.075 mg/kg SC; for inhibition at 0.09 mg/kg: 0.090 mg/kg SC; for inhibition at 0.11 mg/kg: 0.11 mg/kg SC
Excerpt: The open-label, dose escalating, phase 2, CEL-02 trial set out to assess the pharmacodynamics (PD), pharmacokinetics (PK), safety and tolerability of RUC-4 in STEMI patients treated with aspirin and ticagrelor in the ambulance undergoing primary percutaneous coronary intervention (pPCI). STEMI patients presenting for pPCI at the St. Antonius Hospital Nieuwegein, the Netherlands, received a single, weight-adjusted, subcutaneous injection of RUC-4 before coronary angiography. After assessment of every 8 evaluable patients, the dose was escalated to reach an optimal dose for platelet inhibition. All patients were concomitantly treated with aspirin, ticagrelor and unfractionated heparin (UFH)(5000 IU) in the ambulance. Additional UFH during PCI was only administered when ACT was <200 seconds (2500-5000 IU). Blood samples for (PD) and (PK) were taken before RUC-4 administration, and 15, 45, 60, 90, 120, 180, and 240 minutes thereafter. Platelet inhibition was measured by the VerifyNow P2Y12 assay BASE channel which uses a protease activated receptor-1 (PAR-1) peptide (iso-TRAP) and a PAR-4 activating peptide as agonists, overriding platelet inhibition by oral P2Y12 inhibitors.

Structure (SMILES): NCC(=O)Nc1cncc(-c2nn3c(=O)cc(N4CCNCC4)nc3s2)c1 [RUC-4]
- inhibition of VN ADP+PGE1 assay [1]: dramatically inhibits
- inhibition of VN base channel assay [1]: dramatically inhibits
- inhibition of VN iso-TRAP assay [1]: dramatically inhibits
- inhibition of the VN isoTRAP channels ([2]; IIb/IIIa and PRU cartridges): dose-dependent inhibition
- inhibition of the VN ADP+PGE1 channel ([2]; PRU cartridge): dose-dependent inhibition
- inhibition of AA (arachidonic acid) induced LTA (platelet aggregation): dramatically inhibits
- inhibition of ADP induced LTA (platelet aggregation): dramatically inhibits
- mean±SD IPA ([3]; healthy volunteers, 0.05 mg/kg SC, n=6): 71.8±15.0%
- mean±SD IPA ([3]; healthy volunteers, 0.075 mg/kg SC, n=6): 84.7±16.7%
- time over which IPA diminished ([3]; healthy volunteers, in all cases, after SC injection): 90 to 120 min
- IPA ([3]; 0.04 mg/kg SC, n=2): 53.6±17.0%
- IPA ([3]; 0.05 mg/kg SC, n=6): 76.9±10.6%
- IPA ([3]; 0.075 mg/kg SC, n=18): 88.9±12.7%
- inhibition at 0.075 mg/kg ([4]; 0.25 h, 15 minutes post-dose, n=8, with aspirin, ticagrelor, UFH, read-out: maximal platelet inhibition, mean [SD]): 83.7%
- inhibition at 0.09 mg/kg ([4]; 0.25 h, 15 minutes post-dose, n=9, with aspirin, ticagrelor, UFH, read-out: maximal platelet inhibition, mean [SD]): 89.6%
- inhibition at 0.11 mg/kg ([4]; 0.25 h, 15 minutes post-dose, n=10, with aspirin, ticagrelor, UFH, read-out: maximal platelet inhibition, mean [SD]): 92.5%
- inhibition at 0.075 mg/kg ([4]; 2 h, 120 minutes post-dose, n=8, read-out: platelet inhibition, mean (SD)): 17.9%
- inhibition at 0.09 mg/kg ([4]; 2 h, 120 minutes post-dose, n=9, read-out: platelet inhibition, mean (SD)): 22.6%
- inhibition at 0.11 mg/kg ([4]; 2 h, 120 minutes post-dose, n=10, read-out: platelet inhibition, mean (SD)): 31.6%
- time to maximal platelet function inhibition ([4]; single-dose subcutaneous): ≤ 15 min
- time to return of platelet function ([4]; single-dose subcutaneous): ≤ 120 min

Structure (SMILES): CCCSc1nc(N[C@@H]2C[C@H]2c2ccc(F)c(F)c2)c2nnn([C@@H]3C[C@H](OCCO)[C@@H](O)[C@H]3O)c2n1 [ticagrelor]
- inhibition of VN ADP+PGE1 assay [1]: dramatically inhibits
- inhibition of VN base channel assay [1]: does not inhibit
- inhibition of VN iso-TRAP assay [1]: slightly inhibits
- inhibition of iso-TRAP induced LTA (platelet aggregation): slightly inhibits

Structure (SMILES): CC(=O)Oc1ccccc1C(=O)O [aspirin]
- inhibition of VN ADP+PGE1 assay [1]: does not inhibit
- inhibition of VN base channel assay [1]: does not inhibit
- inhibition of VN iso-TRAP assay [1]: does not inhibit
- inhibition of ADP induced LTA (platelet aggregation): does not significantly inhibit
- inhibition of iso-TRAP induced LTA (platelet aggregation): does not significantly inhibit
- effect of aspirin on IPA ([3]; subjects given RUC-4 SC): did not affect
- effect of aspirin on RUC-4 blood levels ([3]; subjects given RUC-4 SC): did not affect
